{"source": "patent US10246456B2", "about": "“IRAK4 inhibiting agents” (BIOGEN MA INC., priority 2014, dated 2019)"}
{"target": "IRAK4 (Homo sapiens (Human), UniProt Q9NWZ3)", "sequence (Q9NWZ3 whole entry, species assumed)": "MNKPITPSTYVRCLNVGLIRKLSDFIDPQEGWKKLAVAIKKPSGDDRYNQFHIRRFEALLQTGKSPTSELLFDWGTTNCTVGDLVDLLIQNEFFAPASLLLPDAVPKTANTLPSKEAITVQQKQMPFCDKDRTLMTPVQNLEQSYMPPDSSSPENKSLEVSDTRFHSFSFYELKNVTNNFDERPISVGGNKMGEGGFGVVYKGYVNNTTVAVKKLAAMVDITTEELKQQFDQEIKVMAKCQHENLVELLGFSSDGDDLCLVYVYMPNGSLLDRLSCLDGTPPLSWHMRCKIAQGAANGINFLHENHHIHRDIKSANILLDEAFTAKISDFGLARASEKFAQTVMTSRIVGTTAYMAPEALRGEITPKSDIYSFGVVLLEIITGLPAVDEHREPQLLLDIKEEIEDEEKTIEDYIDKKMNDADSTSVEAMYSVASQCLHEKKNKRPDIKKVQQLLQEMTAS", "experiment": "IRAK-4 AlphaScreen biochemical kinase assay", "settings": "1 nM IRAK4, 1 mM ATP, 3.5 h at RT", "outline": "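AlphaScreen read-out: streptavidin beads bind the biotinylated peptide and protein A beads bind the anti-phosphothreonine antibody, so energy transfer reports phosphorylation of the peptide. The kinase is human IRAK-4.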", "units": {"IC50": "nM"}}
{"smiles": "CC(N)c1cccc(-c2ccc3cnn(-c4cccc(C(C)(C)N)n4)c3c2)n1", "note": "(stereo not shown) [Example 292, 2-(6-(6-(6-(1-aminoethyl)pyridin-2-yl)-1H-indazol-1-yl)pyridin-2-yl)propan-2-amine]", "IC50": "1000 to 10000"}
{"smiles": "CCOc1cc(-c2cccc(C(C)N)n2)cc2c1cnn2-c1cccc(C)n1", "note": "(stereo not shown) [Example 245, 1-(6-(4-ethoxy-1-(6-methylpyridin-2-yl)-1H-indazol-6-yl)pyridin-2-yl)ethanamine]", "IC50": "< 100"}
{"smiles": "C[C@H](N)c1cccc(-c2ccc3cnn(-c4cccc(C(=O)O)n4)c3c2)n1", "note": "[Example 472, 6-{6-[6-((S)-1-Amino-ethyl)-pyridin-2-yl]-indazol-1-yl}-pyridine-2-carboxylic acid]", "IC50": "1000 to 10000"}
{"smiles": "Cc1ccnc(-n2ncc3ccc(-c4cncc(N)c4)cc32)n1", "note": "[Example 36, 5-(1-(4-methylpyrimidin-2-yl)-1H-indazol-6-yl)pyridin-3-amine]", "IC50": "< 100"}
{"smiles": "Cc1cccc(-n2ncc3ccc(-c4ncc(CN)s4)cc32)n1", "note": "[Example 140, (2-(1-(6-methylpyridin-2-yl)-1H-indazol-6-yl)thiazol-5-yl)methanamine]", "IC50": "100 to 1000"}
{"smiles": "CC(N)c1cc(-c2ccc3cnn(-c4cccc(C(F)(F)F)n4)c3c2)ccn1", "note": "(stereo not shown) [Example 91, 1-(4-(1-(6-(trifluoromethyl)pyridin-2-yl)-1H-indazol-6-yl)pyridin-2-yl)ethanamine]", "IC50": "100 to 1000"}
{"smiles": "Cc1cccc(-n2ncc3c(Cl)cc(-c4cccc(C(C)N)n4)cc32)n1", "note": "(stereo not shown) [Example 106, 1-(6-(4-chloro-1-(6-methylpyridin-2-yl)-1H-indazol-6-yl)pyridin-2-yl)ethanamine]", "IC50": "< 100"}
{"smiles": "Cc1cccc(-n2ncc3c(-c4nnc(C)o4)cc(-c4cccc(C(C)N)n4)cc32)n1", "note": "(stereo not shown) [Example 557, 1-(6-(4-(5-methyl-1,3,4-oxadiazol-2-yl)-1-(6-methylpyridin-2-yl)-1H-indazol-6-yl)pyridin-2-yl)ethanamine]", "IC50": "100 to 1000"}
{"smiles": "CCC(N)c1cccc(-c2ccc3cnn(-c4cccc(C(N)=O)n4)c3c2)n1", "note": "(stereo not shown) [Example 269, 6-(6-(6-(1-aminopropyl)pyridin-2-yl)-1H-indazol-1-yl)picolinamide]", "IC50": "< 100"}
{"smiles": "NC(=O)c1cccc(-n2ncc3ccc(-c4cncc(N)c4)cc32)n1", "note": "[Example 31, 6-(6-(5-aminopyridin-3-yl)-1H-indazol-1-yl)picolinamide]", "IC50": "< 100"}
{"smiles": "CCC[C@H](N)c1cccc(-c2cc(-c3ncc(C)o3)c3cnn(-c4cccc(CO)n4)c3c2)n1", "note": "[Example 582, (S)-(6-(6-(6-(1-aminobutyl)pyridin-2-yl)-4-(5-methyloxazol-2-yl)-1H-indazol-1-yl)pyridin-2-yl)methanol]", "IC50": "< 100"}
{"smiles": "O=C1CCc2ccc(-c3ccc4cnn(-c5cccc(C(F)(F)F)n5)c4c3)nc21", "note": "[Example 210, 2-(1-(6-(trifluoromethyl)pyridin-2-yl)-1H-indazol-6-yl)-5H-cyclopenta[b]pyridin-7(6H)-one]", "IC50": "> 10000"}
{"smiles": "CC(N)c1cccc(-c2cc(CO)c3cnn(-c4cccc(CO)n4)c3c2)n1", "note": "(stereo not shown) [Example 309, (6-(6-(1-aminoethyl)pyridin-2-yl)-1-(6-(hydroxymethyl)pyridin-2-yl)-1H-indazol-4-yl)methanol]", "IC50": "< 100"}
{"smiles": "CC[C@@H](N)c1cccc(-c2cc(-c3cc(C)n(C)n3)c3cnn(-c4cccc(CO)n4)c3c2)n1", "note": "[Example 390, (R)-(6-(6-(6-(1-aminopropyl)pyridin-2-yl)-4-(1,5-dimethyl-1H-pyrazol-3-yl)-1H-indazol-1-yl)pyridin-2-yl)methanol]", "IC50": "< 100"}
{"smiles": "Cc1cnc(-c2cc(-c3cccc([C@H](C)N)n3)cc3c2cnn3-c2cccc(CO)n2)o1", "note": "[Example 577, (S)-(6-(6-(6-(1-aminoethyl)pyridin-2-yl)-4-(5-methyloxazol-2-yl)-1H-indazol-1-yl)pyridin-2-yl)methanol]", "IC50": "< 100"}
{"smiles": "CC(N)c1cccc(-c2ccc3cnn(-c4cccc(C(C)(C)O)n4)c3c2)n1", "note": "(stereo not shown) [Example 278, 2-(6-(6-(6-(1-aminoethyl)pyridin-2-yl)-1H-indazol-1-yl)pyridin-2-yl)propan-2-ol]", "IC50": "< 100"}
{"smiles": "CNc1cc(-c2cccc(C(C)N)n2)cc2c1cnn2-c1cccc(C)n1", "note": "(stereo not shown) [Example 101, 6-(6-(1-aminoethyl)pyridin-2-yl)-N-methyl-1-(6-methylpyridin-2-yl)-1H-indazol-4-amine]", "IC50": "< 100"}
{"smiles": "Cc1cccc(-n2ncc3ccc(-c4cncc(N)c4C)cc32)n1", "note": "[Example 10, 4-methyl-5-(1-(6-methylpyridin-2-yl)-1H-indazol-6-yl)pyridin-3-amine]", "IC50": "1000 to 10000"}
{"smiles": "COCCOc1cc(-c2cccc(C3(N)CCC3)n2)cc2c1cnn2-c1cncc(CO)n1", "note": "[Example 468, (6-(6-(6-(1-aminocyclobutyl)pyridin-2-yl)-4-(2-methoxyethoxy)-1H-indazol-1-yl)pyrazin-2-yl)methanol]", "IC50": "< 100"}
{"smiles": "Cc1cccc(-n2ncc3ccc(-c4cc(C(F)(F)F)cc(C(C)N)n4)cc32)n1", "note": "(stereo not shown) [Example 125, 1-(6-(1-(6-methylpyridin-2-yl)-1H-indazol-6-yl)-4-(trifluoromethyl)pyridin-2-yl)ethanamine]", "IC50": "100 to 1000"}
{"smiles": "CC(=O)c1cccc(-c2ccc3cnn(-c4cccc(C#N)n4)c3c2)n1", "note": "[Example 236, 6-(6-(6-acet6ylpyridin-2-yl)-1H-indazol-1-yl)picolinonitrile]", "IC50": "> 10000"}
{"smiles": "Cc1cccc(-n2ncc3ccc(-c4cccc5c4CCNC5=O)cc32)n1", "note": "[Example 206, 5-(1-(6-methylpyridin-2-yl)-1H-indazol-6-yl)-3,4-dihydroisoquinolin-1(2H)-one]", "IC50": "> 10000"}
{"smiles": "Nc1cncc(-c2ccc3cnn(-c4cccc(C(=O)N5CC(O)C5)n4)c3c2)c1", "note": "[Example 68, (6-(6-(5-aminopyridin-3-yl)-1H-indazol-1-yl)pyridin-2-yl)(3-hydroxyazetidin-1-yl)methanone]", "IC50": "100 to 1000"}
{"smiles": "CC(N)c1cccc(-c2ccc3cnn(-c4ccnc(C#N)n4)c3c2)n1", "note": "(stereo not shown) [Example 562, 4-(6-(6-(1-aminoethyl)pyridin-2-yl)-1H-indazol-1-yl)pyrimidine-2-carbonitrile]", "IC50": "1000 to 10000"}
{"smiles": "C[C@H](N)c1cccc(-c2cc(-c3ncc(F)cn3)c3cnn(-c4cccc(CO)n4)c3c2)n1", "note": "[Example 385, (S)-(6-(6-(6-(1-aminoethyl)pyridin-2-yl)-4-(5-fluoropyrimidin-2-yl)-1H-indazol-1-yl)pyridin-2-yl)methanol]", "IC50": "< 100"}
{"smiles": "Cc1cccc(-n2ncc3ccc(-c4cccc(C(C)N(C)C)n4)cc32)n1", "note": "(stereo not shown) [Example 220, N,N-dimethyl-1-(6-(1-(6-methylpyridin-2-yl)-1H-indazol-6-yl)pyridin-2-yl)ethanamine]", "IC50": "100 to 1000"}
{"smiles": "Cc1cccc(-n2ncc3c(C(C)C)cc(-c4cccc(C(C)N)n4)cc32)n1", "note": "(stereo not shown) [Example 110, 1-(6-(4-isopropyl-1-(6-methylpyridin-2-yl)-1H-indazol-6-yl)pyridin-2-yl)ethanamine]", "IC50": "100 to 1000"}
{"smiles": "C/C(=N/O)c1cccc(-c2cc(Cl)c3cnn(-c4cccc(C)n4)c3c2)n1", "note": "[Example 219, (Z)-1-(6-(4-chloro-1-(6-methylpyridin-2-yl)-1H-indazol-6-yl)pyridin-2-yl)ethanone oxime]", "IC50": "1000 to 10000"}
{"smiles": "CCC(N)c1cccc(-c2ccc3cnn(-c4cccc(C)n4)c3c2)n1", "note": "(stereo not shown) [Example 263, 1-(6-(1-(6-methylpyridin-2-yl)-1H-indazol-6-yl)pyridin-2-yl)propan-1-amine]", "IC50": "< 100"}
{"smiles": "Cc1cccc(-n2ncc3ccc(-c4csc(C(C)N)n4)cc32)n1", "note": "(stereo not shown) [Example 310, 1-(4-(1-(6-methylpyridin-2-yl)-1H-indazol-6-yl)thiazol-2-yl)ethanamine]", "IC50": "< 100"}
{"smiles": "[2H][C@](N)(CCC)c1cccc(-c2ccc3cnn(-c4cccc(CO)n4)c3c2)n1", "note": "[Example 419, deutero (S)-(6-(6-(6-(1-aminobutyl)pyridin-2-yl)-1H-indazol-1-yl)pyridin-2-yl)methanol]", "IC50": "< 100"}
{"smiles": "CC(=O)c1cccc(-c2cc(N(C)C(=O)OC(C)(C)C)c3cnn(-c4cccc(C)n4)c3c2)n1", "note": "[Example 225, tert-butyl (6-(6-acetylpyridin-2-yl)-1-(6-methylpyridin-2-yl)-1H-indazol-4-yl)(methyl)carbamate]", "IC50": "1000 to 10000"}
{"smiles": "CCC[C@H](N)c1nccc(-c2ccc3cnn(-c4cccc(CO)n4)c3c2)n1", "note": "[Example 405, (S)-(6-(6-(2-(1-aminobutyl)pyrimidin-4-yl)-1H-indazol-1-yl)pyridin-2-yl)methanol]", "IC50": "< 100"}
{"smiles": "CC(N)c1cccc(-c2ccc3cnn(-c4cccc(CO)n4)c3c2)n1", "note": "(stereo not shown) [Example 123, (6-(6-(6-(1-aminoethyl)pyridin-2-yl)-1H-indazol-1-yl)pyridin-2-yl)methanol]", "IC50": "< 100"}
{"smiles": "NC1CCCc2ccc(-c3ccc4cnn(-c5cccc(C(F)(F)F)n5)c4c3)nc21", "note": "(stereo not shown) [Example 63, 2-(1-(6-(trifluoromethyl)pyridin-2-yl)-1H-indazol-6-yl)-5,6,7,8-tetrahydroquinolin-8-amine]", "IC50": "< 100"}
{"smiles": "Nc1cncc(-c2ccc3cnn(-c4cccc(C(=O)NCCO)n4)c3c2)c1", "note": "[Example 65, 6-(6-(5-aminopyridin-3-yl)-1H-indazol-1-yl)-N-(2-hydroxyethyl)picolinamide]", "IC50": "100 to 1000"}
{"smiles": "CCC[C@H](N)c1cccc(-c2cc(Cl)c3cnn(-c4nccc(C(F)F)n4)c3c2)n1", "note": "[Example 570, (S)-1-(6-(4-chloro-1-(4-(difluoromethyl)pyrimidin-2-yl)-1H-indazol-6-yl)pyridin-2-yl)butan-1-amine]", "IC50": "< 100"}
{"smiles": "CC(=O)c1cccc(-c2cc(F)c3cnn(-c4cccc(C(F)(F)F)n4)c3c2)n1", "note": "[Example 207, 1-(6-(4-fluoro-1-(6-(trifluoromethyl)pyridin-2-yl)-1H-indazol-6-yl)pyridin-2-yl)ethanone]", "IC50": "1000 to 10000"}
{"smiles": "Cc1cccc(-n2ncc3ccc(-c4cccc(C5(C(N)=O)CCC5)n4)cc32)n1", "note": "[Example 312, 1-(6-(1-(6-methylpyridin-2-yl)-1H-indazol-6-yl)pyridin-2-yl)cyclobutanecarboxamide]", "IC50": "< 100"}
{"smiles": "C[C@H](N)c1cccc(-c2ccc3cnn(-c4nc(CO)ccc4F)c3c2)n1", "note": "[Example 565, (S)-(6-(6-(6-(1-aminoethyl)pyridin-2-yl)-1H-indazol-1-yl)-5-fluoropyridin-2-yl)methanol]", "IC50": "100 to 1000"}
